# According to PMC8168755, “Discovery of new VEGFR-2 inhibitors based on bis([1, 2, 4]triazolo)[4,3-a:3',4'-c]quinoxaline derivatives as anticancer agents and apoptosis inducers” (Journal of Enzyme Inhibition and Medicinal Chemistry, 2021):
# Read-outs that look alike come from different tables or passages of the source.
# Experiments:
# VEGFR-2 = VEGFR-2 (Homo sapiens, UniProt P35968); assay: biochemical
# Protocol: All the synthesised compounds were tested for their inhibitory activity against VEGFR-2 as described in Supplementary data[75].
# Experimental of biological testing […]
# 2. In vitro VEGFR-2 kinase assay
# All the synthesized compounds were tested for its inhibitory activity against VEGFR-2. Human VEGFR-2 ELISA kit (Enzyme-Linked Immunosorbent Assay) was utilized in this test. At first, specific antibody for VEGFR-2 was seeded on a 96-well plate and 100 μL of the standard solution or the tested compound was added, all were incubated at room temperature for 2.5 h. Then washed, 100 μL of the prepared biotin antibody was added, then incubated at room temperature for additional 1 h. and washed. Then, 100 μL of streptavidin solution was added and incubated for 45 min. at room temperature. Washed again, 100 μL of TMB Substrate reagent was added and incubated for 30 min. at room temperature. 50 μL of the stop solution was added, then read at 450 […]
# nm immediately. […]
# [1] = system: MCF-7 and HepG2 cell lines; assay: In vitro anti-proliferative activity (MTT assay), stated over both cell lines; type: cell-based; details: Homo sapiens, read-out: IC50 values ranging over the two cell lines (MCF-7 and HepG2)
# HepG2 = assay: In vitro anti-proliferative activity (MTT assay), HepG2; type: cell-based, human; details: read-out: IC50 (µM) HepG2
# Protocol: (§1) All newly prepared compounds were assessed for their in vitro cytotoxic efficiencies via standard MTT method, against breast cancer (MCF-7) and hepatocellular carcinoma (HepG2) cell lines.
# (§2) MTT assay protocol[55–57]^,[74] was applied as described in Supplementary data.
# (§3) Experimental of biological testing
# (§4) 1. In vitro anti-proliferative activity
# (§5) the synthesized compounds.
# (§6) oC for 48 h under 5% CO2.
# (§7) the synthesized compounds and incubated for 24 h.
# MCF-7 = assay: In vitro anti-proliferative activity (MTT assay), MCF-7; type: cell-based, human; details: read-out: IC50 (µM) MCF-7
# Protocol: as §1, §2, §3, §4, §5, §6, §7
# Bcl-2 = details: HepG2, 24 h
# BAX = details: HepG2, 24 h
# [2] = mean ± SD of three separate experiments
# [3] = MTT, range stated for a group of compounds and both cell lines
# [4] = Homo sapiens, HepG2, MTT, 24 h treatment, mean ± SD of three separate experiments
# [5] = Homo sapiens, MCF7, MTT, 24 h treatment, mean ± SD of three separate experiments
# [6] = control 1.00, mean ± SEM of three experiments
# [7] = MTT, 24 h treatment, mean ± SD of three separate experiments
# Sequence of VEGFR-2 (P35968 20-1356): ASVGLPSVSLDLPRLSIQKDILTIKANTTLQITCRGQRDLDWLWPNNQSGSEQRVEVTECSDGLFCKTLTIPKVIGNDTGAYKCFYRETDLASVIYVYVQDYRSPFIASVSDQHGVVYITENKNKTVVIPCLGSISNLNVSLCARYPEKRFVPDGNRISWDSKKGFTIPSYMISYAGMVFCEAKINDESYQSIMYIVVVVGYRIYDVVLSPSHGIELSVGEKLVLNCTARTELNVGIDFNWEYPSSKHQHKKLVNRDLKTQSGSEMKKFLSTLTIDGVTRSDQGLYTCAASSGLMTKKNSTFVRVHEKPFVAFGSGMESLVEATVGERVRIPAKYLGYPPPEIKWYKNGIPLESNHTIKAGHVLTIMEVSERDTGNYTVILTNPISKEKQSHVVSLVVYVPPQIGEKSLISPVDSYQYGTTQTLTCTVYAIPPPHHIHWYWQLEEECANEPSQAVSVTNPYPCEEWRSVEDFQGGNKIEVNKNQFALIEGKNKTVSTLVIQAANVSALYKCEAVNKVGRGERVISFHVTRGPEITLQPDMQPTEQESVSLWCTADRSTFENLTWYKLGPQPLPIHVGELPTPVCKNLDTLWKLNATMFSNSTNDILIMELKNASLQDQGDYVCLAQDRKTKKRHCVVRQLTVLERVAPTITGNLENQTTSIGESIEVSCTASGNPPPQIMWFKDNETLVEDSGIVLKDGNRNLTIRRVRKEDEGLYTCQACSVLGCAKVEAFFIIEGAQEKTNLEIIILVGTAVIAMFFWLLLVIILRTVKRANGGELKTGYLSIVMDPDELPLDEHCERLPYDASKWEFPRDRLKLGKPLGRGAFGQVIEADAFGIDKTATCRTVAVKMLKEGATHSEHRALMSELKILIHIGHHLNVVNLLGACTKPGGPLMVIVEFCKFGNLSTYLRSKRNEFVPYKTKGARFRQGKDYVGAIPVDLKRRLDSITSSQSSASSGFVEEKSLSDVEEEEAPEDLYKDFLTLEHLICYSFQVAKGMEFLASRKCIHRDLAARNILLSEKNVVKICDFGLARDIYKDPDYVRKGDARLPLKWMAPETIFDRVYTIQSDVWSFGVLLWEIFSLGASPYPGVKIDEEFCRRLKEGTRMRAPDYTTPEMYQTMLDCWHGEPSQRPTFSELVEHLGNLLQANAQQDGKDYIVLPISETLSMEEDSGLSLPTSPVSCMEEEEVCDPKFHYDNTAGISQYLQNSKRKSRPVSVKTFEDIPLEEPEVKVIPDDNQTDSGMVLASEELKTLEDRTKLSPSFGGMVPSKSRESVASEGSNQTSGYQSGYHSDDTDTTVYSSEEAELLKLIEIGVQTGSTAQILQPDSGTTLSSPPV
IC50 (VEGFR-2; [2]) [nM],"IC50 [1, 3] [µM]",IC50 (HepG2; [4]) [µM],IC50 (MCF-7; [5]) [µM],Structure (SMILES),other results
7.1 ± 0.4,6.4 to 19.4,11.3 ± 0.9,17.7 ± 1.5,"CCNC(=O)c1ccc(NC(=O)CSc2nnc3c4nncn4c4ccccc4n23)cc1 [Compound 23a, 4-(2-(Bis([1,2, 4]triazolo)[4,3-a:3',4'-c]quinoxalin-3-ylthio)acetamido)-N-ethylbenzamide]",
71.6 ± 5.2,,69.1 ± 6.1,78.9 ± 6.1,"CCCCNC(=O)c1ccc(NC(=O)CSc2nnc3c4nncn4c4ccccc4n23)cc1 [Compound 23b, 4-(2-(Bis([1,2, 4]triazolo)[4,3-a:3',4'-c]quinoxalin-3-ylthio)acetamido)-N-butylbenzamide]",
11.8 ± 0.8,15.2 to 48.3,17.5 ± 1.2,21.6 ± 1.8,"CC(C)(C)NC(=O)c1ccc(NC(=O)CSc2nnc3c4nncn4c4ccccc4n23)cc1 [Compound 23d, 4-(2-(Bis([1,2, 4]triazolo)[4,3-a:3',4'-c]quinoxalin-3-ylthio)acetamido)-N-(tert-butyl)benzamide]",
,,,,"O=C(CSc1nnc2c3nncn3c3ccccc3n12)Nc1ccc(C(=O)Nc2cccc(Cl)c2)cc1 [Compound 23h, 4-(2-(Bis([1,2, 4]triazolo)[4,3-a:3',4'-c]quinoxalin-3-ylthio)acetamido)-N-(3-chlorophenyl)benzamide]","IC50 (VEGFR-2): 11.7 ± 0.9 nM; IC50 [1]: 15.2 to 48.3 µM; IC50 (HepG2; Homo sapiens, HepG2, 24 h): 22.3 ± 1.8 µM; IC50 (MCF-7; Homo sapiens, MCF7, 24 h): 37.2 ± 3.2 µM"
9.4 ± 0.7,,,,"O=C(CSc1nnc2c3nncn3c3ccccc3n12)Nc1ccc(C(=O)Nc2ccc(Cl)cc2)cc1 [Compound 23i, 4-(2-(Bis([1,2, 4]triazolo)[4,3-a:3',4'-c]quinoxalin-3-ylthio)acetamido)-N-(4-chlorophenyl)benzamide]",
,,,,"O=C(CSc1nnc2c3nncn3c3ccccc3n12)Nc1ccc(C(=O)Nc2cc(Cl)ccc2Cl)cc1 [Compound 23j, 4-(2-(Bis([1,2, 4]triazolo)[4,3-a:3′,4′-c]uinoxaline-3-ylthio)acetamido)-N-(2,5-dichlorophenyl)benzamide]",IC50 (VEGFR-2): 3.7 ± 0.2 nM; Decrease of Bcl-2 level (Bcl-2; compared to control cells): 2.63 fold; Protein expression (normalized to β-actin) Bcl-2 (Bcl-2; [6]): 0.38 ± 0.03; Increase of BAX level (BAX; compared to control cells): 1.65 fold; Protein expression (normalized to β-actin) BAX (BAX; [6]): 1.65 ± 0.06; IC50 (HepG2; [7]): 6.4 ± 0.5 µM; IC50 (MCF-7; [7]): 10.3 ± 0.8 µM
5.8 ± 0.3,,,,"O=C(CSc1nnc2c3nncn3c3ccccc3n12)Nc1ccc(C(=O)Nc2ccccc2O)cc1 [Compound 23l, 4-(2-(Bis([1,2, 4]triazolo)[4,3-a:3′,4′-c]uinoxaline-3-ylthio)acetamido)-N-(2-hydroxyphenyl)benzamide]",IC50 (HepG2; [7]): 11.3 ± 0.7 µM; IC50 (MCF-7; [7]): 19.4 ± 1.1 µM
9.7 ± 0.7,15.2 to 48.3,15.2 ± 1.2,21.6 ± 1.7,"O=C(CSc1nnc2c3nncn3c3ccccc3n12)Nc1ccc(C(=O)Nc2ccc(O)cc2)cc1 [Compound 23m, 4-(2-(Bis([1,2, 4]triazolo)[4,3-a:3′,4′-c]uinoxaline-3-ylthio)acetamido)-N-(4-hydroxyphenyl)benzamide]",
7.4 ± 0.5,6.4 to 19.4,12.7 ± 0.9,16.5 ± 1.3,"O=C(CSc1nnc2c3nncn3c3ccccc3n12)Nc1ccc(C(=O)Nc2ccc([N+](=O)[O-])cc2O)cc1 [Compound 23n, 4-(2-(Bis([1,2, 4]triazolo)[4,3-a:3′,4′-c]uinoxaline-3-ylthio)acetamido)-N-(2-hydroxy-4-nitrophenyl)benzamide]",
23.9 ± 1.9,15.2 to 48.3,34.5 ± 2.8,48.3 ± 3.9,"O=C(CSc1nnc2c3nncn3c3ccccc3n12)Nc1ccc(C(=O)NNC(=O)c2ccccc2Cl)cc1 [Compound 24a, 2-(Bis([1,2, 4]triazolo)[4,3-a:3',4'-c]quinoxalin-3-ylthio)-N-(4–(2-(2-chlorobenzoyl)hydrazine-1-carbonyl)phenyl)acetamide]",
22.3 ± 1.8,15.2 to 48.3,30.3 ± 2.7,42.7 ± 3.7,"O=C(CSc1nnc2c3nncn3c3ccccc3n12)Nc1ccc(C(=O)NNC(=O)c2cccc(Cl)c2)cc1 [Compound 24b, 2-(Bis([1,2, 4]triazolo)[4,3-a:3',4'-c]quinoxalin-3-ylthio)-N-(4–(2-(3-chlorobenzoyl)hydrazine-1-carbonyl)phenyl)acetamide]",
20.7 ± 1.6,15.2 to 48.3,29.8 ± 2.1,40.7 ± 3.7,"O=C(CSc1nnc2c3nncn3c3ccccc3n12)Nc1ccc(C(=O)NNC(=O)c2ccccc2O)cc1 [Compound 24c, 2-(Bis([1,2, 4]triazolo)[4,3-a:3',4'-c]quinoxalin-3-ylthio)-N-(4–(2-(2-hydroxybenzoyl)hydrazine-1-carbonyl)phenyl)acetamide]",
,,2.17 ± 0.14,3.51 ± 0.22,"CNC(=O)c1cc(Oc2ccc(NC(=O)Nc3ccc(Cl)c(C(F)(F)F)c3)cc2)ccn1 [Sorafenib, sorafenib, reference compound]",

Structure (SMILES),IC50 (VEGFR-2; [2]) [nM],"IC50 [1, 3] [µM]",IC50 (HepG2; [4]) [µM],IC50 (MCF-7; [5]) [µM],other results
"CCC(C)NC(=O)c1ccc(NC(=O)CSc2nnc3c4nncn4c4ccccc4n23)cc1 (stereo not drawn) [Compound 23c, 4-(2-(Bis([1,2, 4]triazolo)[4,3-a:3',4'-c]quinoxalin-3-ylthio)acetamido)-N-(sec-butyl)benzamide]",47.1 ± 4.2,,69.8 ± 5.9,76.2 ± 6.9,
"O=C(CSc1nnc2c3nncn3c3ccccc3n12)Nc1ccc(C(=O)NC2CCCC2)cc1 [Compound 23e, 4-(2-(Bis([1,2, 4]triazolo)[4,3-a:3',4'-c]quinoxalin-3-ylthio)acetamido)-N-cyclopentylbenzamide]",39.8 ± 3.1,,74.8 ± 6.9,78.3 ± 6.5,
"O=C(CSc1nnc2c3nncn3c3ccccc3n12)Nc1ccc(C(=O)NC2CCCCC2)cc1 [Compound 23f, 4-(2-(Bis([1,2, 4]triazolo)[4,3-a:3',4'-c]quinoxalin-3-ylthio)acetamido)-N-cyclohexylbenzamide]",39.5 ± 2.9,,70.4 ± 5.8,74.1 ± 6.7,
"CC(=O)c1ccc(NC(=O)c2ccc(NC(=O)CSc3nnc4c5nncn5c5ccccc5n34)cc2)cc1 [Compound 23g, N-(4-Acetylphenyl)-4-(2-(bis([1,2, 4]triazolo)[4,3-a:3',4'-c]quinoxalin-3-ylthio)acetamido)benzamide]",62.7 ± 5.7,,80.7 ± 7.1,81.3 ± 7.4,
"O=C(CSc1nnc2c3nncn3c3ccccc3n12)Nc1ccc(C(=O)Nc2ccc(F)cc2)cc1 [Compound 23k, 4-(2-(Bis([1,2, 4]triazolo)[4,3-a:3′,4′-c]uinoxaline-3-ylthio)acetamido)-N-(4-fluorophenyl)benzamide]",49.6 ± 4.1,,71.8 ± 6.3,68.2 ± 5.2,
